The values below come from patent publication US20250089715A1, “INSECTICIDAL MIXTURES” (ADAMA MAKHTESHIM LTD., priority 2021, published 2025).

Assay [1] relates to Spodoptera littoralis larvae. The assay can be described thus: Leaf-dip feeding bioassay on Spodoptera littoralis larvae (castor bean leaves). Type of assay: in vivo. The following applies: for Lethal concentrations for Spodoptera littoralis, LD50 / Lethal concentrations for Spodoptera littoralis, LD90: early 3rd-instar larvae, treated castor bean leaves, probit analysis. How it is done: (§1) The laboratory susceptible strain of S. littoralis is collected in 2000 from a cotton field in Bet She'an area ([…] part of Israel) and is reared on castor bean (Ricinus communis) leaves under standard rearing conditions of 27° C., 55% RH and 14 h photoperiod. Field strain of H. armigera was collected in June 2020 from cotton fields near Rehovot area and was reared on premixed diet (Ward's Stonefly Heliothis Diet, USA) under standard rearing conditions of 27° C., 55% RH and 14 h photoperiod.
Assays with S. littoralis larvae were done as described by Ishaaya et al. (1996, 2003). Castor bean leaves were dipped in various concentrations of the test compounds (and water as control), and were air dried for 2 h under controlled room conditions. The treated leaves were transferred into foam plastic (“Kalkar”) cups containing a layer of sawdust to avoid humidity. The treated leaves were offered to early 3rd-instar (12±1 mg) for 4-day feeding of the laboratory susceptible strain and for additional 4 days on untreated leaves. Larval mortality was determined and recorded on day 4 and 8 or as indicated, and larval weight gain (LWG) was determined on day 4 and 8 or as indicated.
(§2) To obtain a concentration-mortality line, at least three concentrations were used for most of the bioassays. LC values were estimated by probit analysis (POLO, 1987). Control mortality was corrected using Abbott's (1925) formula.
(§3) Firstly, all the compounds were assessed alone against the larvae, and then, binary mixtures of chlorantraniliprole with tau-fluvalinate were evaluated in different ratios.

Assay [2] concerns Helicoverpa armigera (Heliothis) larvae. Description: Leaf-dip bioassay on Helicoverpa armigera larvae (cotton leaves). The format is in vivo. The following applies: for Lethal concentrations for Helicoverpa armigera (Heliothis), LD50 / Lethal concentrations for Helicoverpa armigera (Heliothis), LD90: third instar larvae, treated cotton leaves, probit analysis. As to the method: as §1
Tender leaves of cotton were dipped in aqueous concentrations of a formulation or in water as control. After 15 seconds of dipping, the cotton leaves were then allowed to air dry for 2 h. Afterwards, Heliothis larvae (third instars, 8-10 mm), reared in a controlled growth room (27±2° C. and 50% RH with a photoperiod of 14:10 h light:dark) were put inside Petri dishes on treated cotton leaves; in addition, filter papers were also added to the dishes (to avoid too much moisture). The experiments were done on 5-10 larvae for each concentration and were repeated three times, on separate days.
Mortality of the larvae in comparison with the control was determined, two and five-six days after exposure to the formulations.
as §2, §3

What is called mortality is the percentage killed. Take `CC(C)[C@@H](Nc1ccc(C(F)(F)F)cc1Cl)C(=O)OC(C#N)c1cccc(Oc2ccccc2)c1` (stereo partly shown) [Tau-fluvalinate]: the mortality at 50 ppm in assay [1] (Spodoptera littoralis, in Ricinus communis, 50 ppm, alone, read-out: S. littoralis mortality, %) was 20%. Also, in assay [1] (Spodoptera littoralis, in Ricinus communis, 100 ppm, alone, read-out: S. littoralis mortality, %), the mortality at 100 ppm came to 40%. In addition, in assay [1], the “Lethal concentrations for Spodoptera littoralis, LD50” value was “LD50 ≥ 100 ppm” and the “Lethal concentrations for Spodoptera littoralis, LD90” value was “LD90 ≥ 500 ppm”. For the same compound, in assay [2] (Helicoverpa armigera, 50 ppm, alone, read-out: H. armigera mortality, %), the mortality at 50 ppm worked out at 30%. In addition, the mortality at 100 ppm in assay [2] (Helicoverpa armigera, 100 ppm, alone, read-out: H. armigera mortality, %) was 45%. In assay [2], the “Lethal concentrations for Helicoverpa armigera (Heliothis), LD50” value is given as “LD50 ≥ 100 ppm” and the “Lethal concentrations for Helicoverpa armigera (Heliothis), LD90” value is “LD90 ≥ 500 ppm”.
Turning to `CNC(=O)c1cc(Cl)cc(C)c1NC(=O)c1cc(Br)nn1-c1ncccc1Cl` [Chlorantraniliprole], in assay [1] (Spodoptera littoralis, in Ricinus communis, 0.05 ppm, alone, read-out: S. littoralis mortality, %), the mortality at 0.05 ppm was 27%. In addition, in assay [1] (Spodoptera littoralis, in Ricinus communis, 0.1 ppm, alone, read-out: S. littoralis mortality, %), the mortality at 0.1 ppm was found to be 48%. Besides, in assay [1], the “Lethal concentrations for Spodoptera littoralis, LD50” value is recorded as “LD50 = 0.1 ppm” and the “Lethal concentrations for Spodoptera littoralis, LD90” value is reported as “LD90 = 1 ppm”. Besides, in assay [2] (Helicoverpa armigera, 0.05 ppm, alone, read-out: H. armigera mortality, %), the mortality at 0.05 ppm was 18%. The mortality at 0.1 ppm in assay [2] (Helicoverpa armigera, 0.1 ppm, alone, read-out: H. armigera mortality, %) worked out at 40%. In assay [2], the “Lethal concentrations for Helicoverpa armigera (Heliothis), LD50” value is reported as “LD50 ≥ 0.1 ppm” and the “Lethal concentrations for Helicoverpa armigera (Heliothis), LD90” value was “LD90 ≥ 1 ppm”.
